Among the test systems are MCF7; HCT-15; U-251; SN12C; SR; OVCAR-8; MDA-MB-435; SNB-19; TK-10; MDA-MB-231; SF-268; HCT-116; SK-MEL-5; PC-3; RPMI-8226; LOX IMVI; BT-549; EKVX; UACC-257; T47D.
Common to all, as to assay: DTP human tumour cell line panel, 48 h

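Method: 48-hour compound exposure of cells in 96-well plates, five concentrations, linear interpolation of endpoints. At the GI50, growth is halved.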 Calls of active or inactive are those of the source. No stated cut-off is given here; in the data, active = GI50 up to about 1.1 µM and inactive = higher. Some results are limits rather than exact numbers.

`CC(C)Cc1cc2c(cc1O)CCC1C2CC[C@@]2(C)C1CC[C@@H]2O` (stereo not given in full): the GI50 in the assay with MCF7 is 8.43 µM (inactive); in the assay with HCT-15, 7.21 µM; in the assay with U-251 it was 10.7 µM (inactive); in the assay on SN12C, 7.74 µM (inactive); in the assay with SR, 3.85 µM (inactive); with OVCAR-8, 6.35 µM (inactive). The GI50 was 11.6 µM (inactive) in the assay on MDA-MB-435; 7.46 µM (inactive) with SNB-19; 9.48 µM (inactive) in the assay with TK-10; 7.59 µM (inactive) in the assay on MDA-MB-231; 10.8 µM (inactive) in the assay with SF-268; 6.05 µM (inactive) in the assay on HCT-116. Further, the GI50 in the assay on SK-MEL-5 is 7.45 µM (inactive); with PC-3 it was 6.35 µM (inactive); in the assay on RPMI-8226, 3.74 µM (inactive); in the assay with LOX IMVI it was 6.22 µM (inactive); with BT-549, 2.96 µM (inactive); in the assay with EKVX it was 8.69 µM (inactive). For the same compound, the GI50 with UACC-257 is 14.3 µM (inactive); with T47D, 5.04 µM (inactive).
Consider `CC(=O)OCCOc1cc2c([nH]c3ccccc32)c(C)c2cccc1-2`, for which the GI50 was 2.94 µM (inactive) with MCF7; 2.94 µM in the assay with HCT-15; 1.69 µM (inactive) in the assay on U-251; 3.01 µM (inactive) in the assay with SN12C; 2.92 µM (inactive) in the assay on SR; 2.59 µM (inactive) in the assay on OVCAR-8. The GI50 with MDA-MB-435 was 2.29 µM (inactive); in the assay with SNB-19, 3.3 µM (inactive); in the assay on TK-10, 2.2 µM (inactive); in the assay with MDA-MB-231, 1.66 µM (inactive); with SF-268, 2.47 µM (inactive); in the assay on HCT-116, 3.3 µM (inactive). Also, the GI50 was 2.77 µM (inactive) in the assay on SK-MEL-5; 1.76 µM (inactive) in the assay with PC-3; 2.43 µM (inactive) in the assay on RPMI-8226; 2.61 µM (inactive) in the assay with LOX IMVI; 2.75 µM (inactive) in the assay with BT-549; 1.86 µM (inactive) in the assay on EKVX. For the same compound, the GI50 in the assay with UACC-257 is 1.91 µM (inactive); in the assay on T47D, 1.92 µM (inactive).
On to `CC1=NC(=Cc2ccc([N+](=O)[O-])cc2)C(=O)N1n1c(-c2ccccc2)nc2ccccc2c1=O`, for which the GI50 in the assay with MCF7 is 29.1 µM (inactive); in the assay with HCT-15, 43.1 µM; in the assay with SN12C, 52 µM (inactive); with SR, 35.2 µM (inactive); in the assay on OVCAR-8, 36.6 µM (inactive); with MDA-MB-435, 47.6 µM (inactive). Besides, the GI50 with SNB-19 is 55.2 µM (inactive); in the assay with TK-10, 80.7 µM (inactive); in the assay on MDA-MB-231, 63.7 µM (inactive); in the assay with SF-268 it was 37.8 µM (inactive); in the assay on HCT-116 it was 32.1 µM (inactive); in the assay on SK-MEL-5 it was 31.9 µM (inactive). Also, the GI50 in the assay on PC-3 is 39.7 µM (inactive); in the assay with RPMI-8226, 22.3 µM (inactive); in the assay with LOX IMVI it was 34.7 µM (inactive); in the assay with BT-549, 85.3 µM (inactive); in the assay with EKVX, 45.5 µM (inactive); in the assay with UACC-257 it was 42.9 µM (inactive). In the assay on T47D, the GI50 is 39.8 µM (inactive).
As for `Nc1[nH]nc2ccccc12`, the GI50 in the assay on MCF7 was > 100 µM (inactive); in the assay on HCT-15 it was 54.7 µM; in the assay with U-251, > 100 µM (inactive); in the assay with SN12C it was > 100 µM (inactive); with SR, 62.2 µM (inactive); in the assay with OVCAR-8 it was > 100 µM (inactive). Moreover, the GI50 with MDA-MB-435, in the assay with SNB-19, in the assay on TK-10, with MDA-MB-231, in the assay with SF-268 and with HCT-116 was > 100 µM (inactive) throughout. For the same compound, the GI50 in the assay on SK-MEL-5, in the assay with PC-3, with RPMI-8226, in the assay with LOX IMVI, with BT-549 and in the assay with EKVX was > 100 µM (inactive) throughout. Also, the GI50 with UACC-257 and with T47D was > 100 µM (inactive) throughout.
Regarding `CC[C@@H]1CC[C@@H]2[C@H](CC[C@]3(C)[C@@H](O[N+](=O)[O-])CC[C@@H]23)[C@H]1C(C)=O`, the GI50 in the assay with MCF7 was 23.8 µM (inactive); in the assay on HCT-15, 22.2 µM; in the assay on U-251, 32.4 µM (inactive); in the assay with SN12C, 43.3 µM (inactive); with SR, 25.6 µM (inactive); in the assay with OVCAR-8, 37.2 µM (inactive). Moreover, the GI50 in the assay with MDA-MB-435 was 32.8 µM (inactive); in the assay with SNB-19, 56.5 µM (inactive); in the assay on TK-10, > 100 µM (inactive); in the assay on MDA-MB-231 it was 11.8 µM (inactive); in the assay on SF-268, 24.5 µM (inactive); in the assay with HCT-116, 23.7 µM (inactive). Further, the GI50 with SK-MEL-5 is 19.7 µM (inactive); with PC-3 it was 28.9 µM (inactive); in the assay on RPMI-8226, 9.02 µM (inactive); in the assay with LOX IMVI, 20 µM (inactive); in the assay on BT-549 it was 50 µM (inactive); in the assay on EKVX it was 16.8 µM (inactive). For the same compound, the results for the GI50 in the assay with UACC-257 and in the assay on T47D were 20 µM (inactive) and 12.9 µM (inactive), respectively.
For `CC1CC(C#N)=C2NCCN2C1=O` (stereo not given), the GI50 with MCF7 is 20.8 µM (inactive); with HCT-15 it was > 100 µM; in the assay on U-251, > 100 µM (inactive); in the assay on SN12C, > 100 µM (inactive); in the assay on SR it was > 100 µM (inactive); in the assay with OVCAR-8 it was > 100 µM (inactive). The GI50 in the assay on MDA-MB-435 was 18.3 µM (inactive); with SNB-19, > 100 µM (inactive); with TK-10, > 100 µM (inactive); in the assay with MDA-MB-231, > 100 µM (inactive); in the assay on SF-268, > 100 µM (inactive); in the assay on SK-MEL-5, 15.2 µM (inactive). Besides, the GI50 with PC-3 was > 100 µM (inactive); in the assay on RPMI-8226, > 100 µM (inactive); in the assay on LOX IMVI, 30.8 µM (inactive); in the assay on BT-549 it was > 100 µM (inactive); in the assay with EKVX, > 100 µM (inactive); in the assay on UACC-257, 78 µM (inactive). Moreover, the GI50 in the assay on T47D is > 100 µM (inactive).
For `CC1CC/C(=C\c2ccc(Cl)cc2)c2nc(N)c(C#N)c(-c3ccc(Cl)cc3)c21` (stereo not given), the GI50 is 22.8 µM (inactive) with MCF7; 8.47 µM with HCT-15; 17.7 µM (inactive) in the assay on U-251; > 100 µM (inactive) in the assay on SN12C; < 0.01 µM (active) in the assay on SR; 63.2 µM (inactive) in the assay on OVCAR-8. Also, the GI50 was 23.9 µM (inactive) with MDA-MB-435; 29.9 µM (inactive) in the assay on SNB-19; 45.4 µM (inactive) in the assay on TK-10; > 100 µM (inactive) in the assay on MDA-MB-231; 84.9 µM (inactive) in the assay on HCT-116; 41.8 µM (inactive) in the assay on SK-MEL-5. Further, the GI50 with PC-3 was 13.8 µM (inactive); with RPMI-8226 it was 19.7 µM (inactive); in the assay with LOX IMVI, > 100 µM (inactive); in the assay with BT-549, 75.5 µM (inactive); with EKVX, 80.7 µM (inactive); in the assay with UACC-257 it was 32.9 µM (inactive). For the same compound, the GI50 with T47D is 55.3 µM (inactive).
Regarding `O=C(CN1CCCCC1)CC(O)(C(F)(F)F)C(F)(F)F`, the GI50 was > 100 µM (inactive) in the assay on MCF7; > 100 µM in the assay on HCT-15; > 100 µM (inactive) in the assay with U-251; > 100 µM (inactive) in the assay on SR; > 100 µM (inactive) in the assay on OVCAR-8; > 100 µM (inactive) in the assay on MDA-MB-435. Also, the GI50 in the assay with SNB-19, in the assay with TK-10, with MDA-MB-231, in the assay with HCT-116, in the assay with SK-MEL-5 and in the assay on PC-3 was > 100 µM (inactive) each time. Also, the GI50 in the assay on RPMI-8226, in the assay with LOX IMVI, in the assay on BT-549, in the assay on EKVX, in the assay with UACC-257 and in the assay on T47D was > 100 µM (inactive) each time.

As a reminder, the GI50 is the concentration at which growth is held to half of that of the control.

The values above are taken from ChEMBL document CHEMBL1201862, “PubChem BioAssay data set” (2004).
